Each structure is given as a SMILES string. Counter-ions that a name gives are not always drawn. Like-named read-outs stand apart in the source and are kept apart here. Some results are limits rather than exact numbers.

The record followed here is US4937346A, “Phenyl-azacykloalkanes” (Carlsson; Per Arvid Emil, priority 1979, dated 1990).

In test [1] the test system is presynaptic dopaminergic receptor (autoreceptor). Put plainly: Spontaneous exploratory motor activity of rats, enantiomers of 3-PPP. The test is classed as in vivo, rat. The protocol:
1. Evidence for presynaptic dopaminergic receptor (autoreceptor) agonist activity of both enantiomers of 3-PPP. Both enantiomers of 3-PPP cause a dose-dependent decrease in spontaneous exploratory motor activity of rats. […] However, the (+)-enantiomer causes a decrease only after doses between 0.25 and 4 mg/kg s.c.

In test [2] the test system is dopa formation. Put plainly: Dopa formation and dopamine metabolite levels in rats not pretreated with GBL or reserpine. The format is in vivo, rat.
The test system of test [3] is postsynaptic dopaminergic receptors. Put plainly: Locomotor activity in reserpine-treated rats, enantiomers of 3-PPP. The format is in vivo, rat. From the text: 2. Evidence for postsynaptic dopaminergic receptor agonist activity of (+)-3-PPP.
Test [4] deals with dopaminergic receptors (presynaptic and postsynaptic). Put plainly: Dopaminergic receptor profile of 3-PPP and its enantiomers (summary of tests). The format is in vivo. The note with it: summary of enantiomer tests. From the text: The two enantiomers of 3-PPP have now been tested separately.
The test system of test [5] is rat brain tyrosine hydroxylation. Put plainly: In-vivo determination of rat brain tyrosine hydroxylation (Dopa formation after NSD 1015, reserpine-pretreated rats). Conditions: sc. The protocol:
2. In-vivo determination of rat brain tyrosine hydroxylation.
The compounds under evaluation were tested biochemically for central DA-receptor (pre- and/or postsynaptic) stimulating activity. The concept of this biochemical screening method is that a DA-receptor agonist will stimulate the receptor and through regulatory feedback systems effect a decline in tyrosine hydroxylase activity and thus a subsequent reduction in the synthesis rate for DA in the presynaptic neuron. Dopa formation, as determined after in-vivo inhibition of the aromatic L-amino acid decarboxylase with NSD 1015 (3-hydroxybenzyl-hydrazine hydrochloride), is taken as an indirect measure of DA synthesis rate.
Rats (150-300 g) pretreated with reserpine were given the compounds under evaluation. Gross behavioral observations (changes in motility, stereotypies etc.) were made in order to evaluate possible postsynaptic dopamine receptor activity. Subsequent administration of NSD 1015, decapitation, brain dissection (corpora striate and the limbic fore-brain), homogenization, centrifugation, ion-exchange chromatography and spectrofluorimetric measurements (all as described in detail by Wikstrom et al., in J. Med. Chem. 21, 864-867, 1978, and references cited therein), gave the actual Dopa levels. Several doses (n=4-6) were tested in order to obtain dose-response curves for each compound and brain area. The dose of a compound producing a half-maximal decrease in the Dopa level in the rat brain part was then estimated.

Test [6] has as its system postsynaptic DA receptors. Put plainly: Antagonism of the reserpine-induced "neuroleptic syndrome" in the rat. The format is in vivo. The note with it: 20 mg/kg s.c. From the text: 1. Antagonism of the reserpine-induced "neuroleptic syndrome" in the rat
Depletion of the monoamine stores with reserpine brings about a "neuroleptic syndrome" characterized by hypomotility, catalepsy, muscle rigidity, hunch-backed posture as well as a number of other central and peripheral signs of monoamine depletion. This syndrome can be reversed by the administration of drugs that stimulate postsynaptic DA receptors directly or indirectly, e.g. apomorphine, L-Dopa.
Rats (150-300 g) pretreated with reserpine (10 mg/kg i.p., 6 h before) were given compound 4 subcutaneously at different doses.

In test [7] the test system is central postsynaptic DA-receptor. Put plainly: Locomotor activity in reserpine-pretreated rats, comparison of compound 4 with two known dopaminergic agonists. The format is in vivo, rat. The note with it: for Motor activity: 0-60 min postinj.; for central postsynaptic DA-receptor stimulation / motor response: s.c. The protocol:
Rats (150-300 g) pretreated with reserpine (10 mg/ kg i.p., 6 h before) were given either phys. saline, compound 4 (100 μmol/kg), N-n-propyl-3-(3,4-dihydroxyphenyl)piperidine (100 μmol/kg) or apomorphine ([…]) subcutaneously and the locomotor activity (accumulated counts 0-60 min.) was quantified by means of Motron boxes (see under 4 above).

The test system of test [8] is postsynaptic dopaminergic receptor. Put plainly: Antagonism of apomorphine-induced locomotor stimulation. Conditions: apomorphine 1 mg/kg s.c., means ± s.e.m., n=10. The format is in vivo, rat. The protocol:
3. Evidence for postsynaptic dopminergic receptor antagonist activity of (-)-3-PPP.
The locomotor stimulating action of the dopamine receptor aqonist apomorphine is antagonized by (-)-3-PPP. […] Thus the postsynaptic receptor antagonist activity requires a larger dose than the presynaptic receptor agonist activity, which is evident after doses down to 0.25 mg/kg.
Further, (-)-3-PPP and racemic 3-PPP have been compared regarding antagonism of apomorphine-induced locomotor stimulation. Either form of 3-PPP was injected subcutaneously in a dose of 8 mg/kg 20 min and apomorphine in a dose of 1 mg/kg subcutaneously 5 min before placing the rats in the Motron for 30 min. Shown are the counts per 30 min., means± s.e.m. and number of experiments (n).

Test [9] has as its system DA autoreceptors. Put plainly: Effect on spontaneous locomotor activity in the rat. The test is classed as in vivo. Conditions: 0-15 min; haloperidol 0.02 mg/kg i.p. 25 min before + saline, n=5. From the text: 4. Effect on spontaneous locomotor activity in the rat.
Untreated animals exposed to a new environment display an initial high motor activity which then gradually declines over a period of time. Administration of DA-receptor agonists (e.g. apomorphine) in doses where preferential autoreceptor stimulation is likely to occur, causes a depression of the spontaneous motility mentioned above, considered to be due to the DA autoreceptor-mediated impairment of central DA transmission.
Rats (150-300 g) were injected subcutaneously with several doses of compounds 4 and after 5 minutes they were individually placed in motility boxes ("M/P 40 Fc Electronic Motility Meter". Motron Products, Stockholm) and the motor activity (0-30 min.) was quantified. […] Moreover, there seems to be a correlation between the decrease in spontaneous locomotion and the degree of antagonism of the GBL-induced increase in DA synthesis (cf. 3 above) in the limbic areas of rat brain exerted by compound 4, the per cent decrease of motor activity being roughly 0.6 times the per cent reversal of GBL-induced increase in DA-synthesis rate.

Setting [10] is: limbic, inactive, read-out: ED50 Limbic (class symbol).
Where [11] appears, read: striatum, inactive, read-out: ED50 Striatum (class symbol).
[12] abbreviates: reserpine-pretreated rats, Dopa level, limbic, read-out: ED50 Limbic.
The mark [13] stands for this setting: reserpine-pretreated rats, Dopa level, striatum, read-out: ED50 Striatum.

Take `CCCN1CCCC(c2cccc(O)c2)C1` (single isomer, unassigned; (+)) [(+)-3-PPP, reference compound]: the “effect on locomotor activity” value in test [1] (8 mg/kg s.c.) was “no effect”. In addition, in test [1] (64 mg/kg s.c.), the “increase of locomotor activity to % of control” value is “more than 200 % of control”. Besides, the “decrease of locomotor activity to % of control” value in [1] (s.c., first 30 min) is 30-40 % of control. In test [2] (0.053 to 64 mg/kg, no pretreatment), the dopa formation entry is “decrease”. Besides, the “levels of 3,4-dihydroxyphenyl acetic acid and homovanillic acid” value in test [2] (matched to the changes in dopa formation) is “corresponding changes in the levels of the dopamine metabolites”. In test [3] (haloperidol), the “effect of haloperidol on locomotor stimulation” value was “blocked by haloperidol”. Also, in test [3] (reserpine-treated rats, (+)-form 0.25 to 64 mg/kg), the “stimulation of locomotor activity” value is reported as “marked stimulation of locomotor activity”. Besides, the “activity on presynaptic and postsynaptic dopaminergic receptors” value in test [4] was “dopaminergic receptor agonist by activating both the presynaptic and the postsynaptic receptors”.

As for `Oc1cccc(C2CCNC2)c1` (centres unmarked) [1 OH H HBr, reference compound], the ED50 in test [5] (setting [10]) and in test [5] (setting [11]) was > 90 µmol/kg each time.

With `CCCN1CCCC(c2cccc(OCc3ccccc3)c2)C1` (centres unmarked) [Compound 17, N-n-Propyl-3-(3-benzyloxyphenyl)piperidine hydrochloride], the ED50 in [5] (setting [12]) and in [5] (setting [13]) was < 45 µmol/kg in each case.

As for `OCCN1CCCC(c2cccc(O)c2)C1` (centres unmarked) [Compound 13, 2-[3-(3-Hydroxyphenyl)-piperidino]ethanol hydrochloride], the ED50 in test [5] (setting [12]) and in [5] (setting [13]) was ~20 µmol/kg each time.

Regarding `CC(C)N1CCCC(c2cccc(O)c2)C1` (centres unmarked) [Compound 7, N-isopropyl-3-(3-hydroxphenyl)piperidine], in test [6], the “antagonism of the reserpine-induced syndrome” value was “No antagonism of the reserpine-induced syndrome was seen”. In addition, the results for the ED50 in test [5] (setting [12]) and in [5] (setting [13]) were 0.8 µmol/kg and 0.7 µmol/kg, respectively.

Take `CCCN1CCCC(c2ccc(O)c(O)c2)C1` (centres unmarked) [N-n-propyl-3-(3,4-dihydroxyphenyl)piperidine, reference compound]: the results for the ED50 in [5] (setting [12]) and in test [5] (setting [13]) were 9.4 µmol/kg and 10 µmol/kg, respectively. For the same compound, in test [7] (100 μmol/kg s.c.), the Motor activity is recorded as 522 ± 83 acc. counts. The “central postsynaptic DA-receptor stimulation / motor response” value in test [7] is reported as “strong central postsynaptic DA-receptor stimulatory effects”.

Take `CCCN1CCCC(c2cccc(OC(=O)C(C)(C)C)c2)C1` (centres unmarked) [Compound 11]: the ED50 amounted to 2.2 µmol/kg in test [5] (setting [12]) and 1.7 µmol/kg in [5] (setting [13]).

Turning to `CC(C)N1CCCC(c2cccc(OC(=O)c3ccccc3)c2)C1` (centres unmarked) [Compound 21], the ED50 in test [5] (setting [12]) and in test [5] (setting [13]) was 0.5 µmol/kg throughout.

Take `C=CCN1CCCC(c2cccc(O)c2)C1` (centres unmarked) [Compound 9]: the ED50 in test [5] (setting [12]) came out at 4.2 µmol/kg; in test [5] (setting [13]), 4 µmol/kg.

As to `C=CCOc1cccc(C2CCCN(CCC)C2)c1` (centres unmarked) [Compound 16, N-n-Propyl-3-(3-allyloxyphenyl)piperidine hydrochloride], the ED50 in test [5] (setting [12]) and in test [5] (setting [13]) was < 45 µmol/kg in each case.

For the compound `CCCN1CCCC(c2cccc(OC)c2)C1` (centres unmarked) [2 OCH3 n-C3 H7 HBr, N-Propyl-3-(3-methoxyphenyl)piperidine hydrobromide, reference compound], the ED50 in test [5] (setting [10]) and in test [5] (setting [11]) was > 180 µmol/kg each time.

`CCCN1CCC(c2cccc(O)c2)C1` (centres unmarked) [Compound 3, N-propyl-30(3-hydroxyphenyl)pyrrolidine]: the 50% effective dose (ED50) in test [5] (setting [12]) and in test [5] (setting [13]) was ~45 µmol/kg each time.

Turning to `CCCN1CCCC(c2cccc(OC(=O)c3ccc(OC(=O)C(C)(C)C)cc3)c2)C1` (centres unmarked) [Compound 20], the ED50 in test [5] (setting [12]) and in [5] (setting [13]) was < 45 µmol/kg each time.

Regarding `CN1CCCC(c2cccc(O)c2)C1` (centres unmarked) [Compound 1], the ED50 in [5] (setting [12]) amounted to 2.1 µmol/kg; in test [5] (setting [13]), 1.5 µmol/kg.

With `CCCN1CCCC(c2cccc(OC(=O)c3c(C)cccc3C)c2)C1` (centres unmarked) [Compound 19, N-n-Propyl-3-[2,6-dimethylbenzoyloxy)-phenyl]piperidine hydrochloride], the ED50 in [5] (setting [12]) and in [5] (setting [13]) was < 45 µmol/kg in each case.

For the compound `CCCN1CCCC(c2cccc(OC(=O)c3ccccc3)c2)C1` (centres unmarked) [Compound 12, N-n-Propyl-3-(3-benzoyloxyphenyl)piperidine hydrochloride], the ED50 in [5] (setting [12]) was determined as 1.8 µmol/kg; in [5] (setting [13]), 2 µmol/kg.

Regarding `CN1CCc2cccc3c2[C@H]1Cc1ccc(O)c(O)c1-3` [Apomorphine, reference compound], the ED50 was 0.19 µmol/kg in [5] (setting [12]) and 0.22 µmol/kg in test [5] (setting [13]). Also, the Motor activity in test [7] (2 μmol/kg s.c.) is listed as 624 ± 51 acc. counts. In addition, the “central postsynaptic DA-receptor stimulation / motor response” value in [7] is given as “strong central postsynaptic DA-receptor stimulatory effects”. For the same compound, in [8], the “counts per 30 min., apomorphine alone” value was determined as 513 ± 35 counts per 30 min.

As for `CCCCCN1CCCC(c2cccc(O)c2)C1` (centres unmarked) [Compound 6, N-pentyl-3-(3-hydroxyphenyl)piperidine hydrochloride], the 50% effective dose (ED50) was found to be 0.9 µmol/kg in test [5] (setting [12]) and 0.6 µmol/kg in [5] (setting [13]).

In the case of `CN(C)CCN1CCCC(c2cccc(O)c2)C1` (centres unmarked) [Compound 14], the ED50 in [5] (setting [12]) and in test [5] (setting [13]) was ~20 µmol/kg in each case.

With `CCCCN1CCCC(c2cccc(OC(=O)c3ccccc3)c2)C1` (centres unmarked) [Compound 22], the ED50 in test [5] (setting [12]) and in [5] (setting [13]) was < 2.7 µmol/kg each time.

Take `CCCCN1CCCC(c2cccc(O)c2)C1` (centres unmarked) [Compound 5, N-butyl-3-(3-hydroxphenyl)piperidine]: the ED50 worked out at 1.7 µmol/kg in test [5] (setting [12]) and 0.7 µmol/kg in test [5] (setting [13]).

`O=C(CCCN1CCC(O)(c2ccc(Cl)cc2)CC1)c1ccc(F)cc1` [Haloperidol, reference compound]: the Motor activity in test [9] was determined as 140 ± 22 acc. counts.

As to `CCCN1CCCC(c2cccc(OC(C)=O)c2)C1` (centres unmarked) [Compound 10, N-n-Propyl-3-(3-acetoxyphenyl)piperidine hydrochloride], the ED50 in test [5] (setting [12]) came to 1.2 µmol/kg; in [5] (setting [13]), 1.5 µmol/kg.

Consider `CCCN1CCCC(c2cccc(OC(=O)Nc3ccccc3)c2)C1` (centres unmarked) [Compound 18, N-n-Propyl-3[3-(phenylcarbamoyloxy)phenyl]-piperidine hydrochloride], for which the ED50 in test [5] (read-out: ED50 Limbic) and in test [5] (read-out: ED50 Striatum) was < 45 µmol/kg throughout.

The ED50 is the dose at which the effect has come halfway, by size or by number of responders.
